Read-outs that look alike come from different tables or passages of the source.
System: stem cell derived hepatocytes
Assay: Hepatocyte function with Cameron and Avior procedures on laminin-221/laminin-521 substrates (Example 3)
Type: cell-based, human
Text: Stem-cell derived hepatocytes were produced from human embryonic stem cells on three different substrates. The first substrate was pure laminin-521 (LN-521). The second substrate was a mix of laminin-521 and laminin-221 in a weight ratio of 1:3 (221 (1:3)). The third substrate was a mix of laminin-221 and laminin-521 in a weight ratio of 1:1 (221 (1:1)). The Cameron procedure and the Avior procedure were compared to each other.
FIG. 13 is a set of two bar graphs showing hepatocyte function of the two procedures. […] Such benefits were not observed using both MK4 and LCA.

Row | Compound | toxic effects on stem cell derived hepatocytes (Avior procedure, LCA and MK4 together, cell death at day 18) | toxic effects on stem cell derived hepatocytes
1 | C[C@H](CCC(=O)O)[C@H]1CC[C@H]2[C@@H]3CC[C@@H]4C[C@H](O)CC[C@]4(C)[C@H]3CC[C@]12C [LCA, lithocholic acid] | major toxic effects | 
2 | CC(C)=CCC/C(C)=C/CC/C(C)=C/CC/C(C)=C/CC1=C(C)C(=O)c2ccccc2C1=O [MK4, vitamin K (MK4)] |  | major toxic effects

— patent publication US10683486B2, “Methods for producing hepatocytes” (BioLamina AB, priority 2015, dated 2020)
